Experimental data taken from patent US10905683B2, “Compositions and uses of amidine derivatives” (BIOCRYST PHARMACEUTICALS, INC., priority 2014, dated 2021).
Converted amounts (≈) assume the structure as drawn.

Tests used:
[1] = octanol-PBS pH 7.4 partition coefficient (log D7.4) assay; format: physicochemical; details: octanol/0.01 M phosphate buffer pH 7.4, 24 hours, LC/MS/MS
Protocol: A 1 μL volume of a 1 mM stock solution of the compound in dimethyl sulfoxide (DMSO) was added to 500 μL 0.01 M phosphate buffer pH 7.4 (saturated with octanol) and 500 μL of octanol (saturated with 0.01 M phosphate buffer). […] Samples were prepared in triplicate.

[2] = Concentration achieved in formulations and excipient mixtures; format: physicochemical; details: in the (oral) pharmaceutical compositions described
Protocol: In initial formulation work for the amidine compounds described herein, in particular 3-[2-(4-carbamimidoyl-phenylcarbamoyl)-5-methoxy-4-vinyl-phenyl]-6-(cyclopropylmethyl-carbamoyl)-pyridine-2-carboxylic acid, extensive studies were carried out to identify a suitable mixture of excipients to produce the oral formulation described herein.
Specifically, a variety of approaches were taken to develop suitable oral formulations of 3-[2-(4-carbamimidoyl-phenylcarbamyl)-5-methoxy-4-vinyl-phenyl]-6-(cyclopropylmethyl-carbamoyl)-pyridine-2-carboxylic acid. The approaches taken included use of a variety of hydrophilic polymers, including α-cyclodextrin and a polyanionic 3-cyclodextrin derivative with a sodium sulfonate salt separated from the lipophilic cavity by a butyl ether or sulfobutylether spacer group in combination with a variety of co-solvents. In addition, the compound was evaluated in formulations created by a number of different technologies (such as dry blends, nanosuspensions, solid dispersion and emulsions) using a variety of approaches.

[3] = Polymorphic conversion of Form A under relative humidity; format: physicochemical; details: RH 43%, 75% and 100%, room temperature
Source text: In another embodiment, pharmaceutical compositions of Form A, in particular the oral pharmaceutical compositions described herein, when administered to a subject provide for increased bioavailability of the compound as compared to amorphous 3-[2-(4-carbamimidoyl-phenylcarbamoyl)-5-methoxy-4-vinylphenyl]-6-(cyclopropylmethyl-carbamoyl)-pyridine-2-carboxylic acid and salts thereof and other crystalline forms. In another embodiment, pharmaceutical compositions of Form A, in particular the oral pharmaceutical compositions described herein, when administered to a subject for treating a condition, is sufficient to affect such treatment. In another embodiment, pharmaceutical compositions of Form A, in particular the oral pharmaceutical compositions described herein, when administered to a subject for treating a condition, is sufficient to affect such treatment when dosed 1 to 3 times per day or less (such as 1 to 2 times). In another embodiment, pharmaceutical compositions of Form A, in particular the oral pharmaceutical compositions described wherein when administered to a subject provide for a therapeutically effective amount of the compound of at least 10 ng/ml, at least 15 ng/ml or at least 25 ng/ml in the blood of the subject for a period of at least from two hours to four hours after administration to a subject. […]

[4] = Aqueous solubility assay in buffer and simulated gastric/intestinal fluids; details: 37 °C, thermodynamic from solid, Observed Solubility, Target 100 μM, 24 hours
Protocol: The target concentration in each solution was 100 μM. […] The aqueous solutions were added (1 mL) to the dried samples and mixed at 400 rpm at 37° C. on an orbital plate shaker. […] Samples were prepared in triplicate. Testosterone and verapamil were used as reference compounds.

Structure (SMILES): C[C@@H]1C[C@H]2[C@@H]3CCC4=CC(=O)C=C[C@]4(C)[C@@]3(F)[C@@H](O)C[C@]2(C)[C@@]1(O)C(=O)CO [Dexamethasone, reference compound]
- logD at 24 h [1]: 1.5

Structure (SMILES): C=Cc1cc(C(=O)Nc2ccc(C(=N)N)cc2)c(-c2ccc(C(=O)NCC3CC3)nc2C(=O)O)cc1OC.Cl [Form A, 3-[2-(4-Carbamimidoylphenylcarbamoyl)-5-methoxy-4-vinylphenyl]-6-(cyclopropylmethylcarbamoyl)pyridine-2-carboxylic acid hydrochloride]
- concentration solubilized [2]: greater than 140 mg/ml
- conversion to other polymorphic forms [3]: not observed

Structure (SMILES): C[C@]12CC[C@H]3[C@@H](CCC4=CC(=O)CC[C@@]43C)[C@@H]1CC[C@@H]2O [Testosterone, reference compound]
- solubility at 24 h ([4]; fassgf or other biorelevant, Fasted-State SGF): 43 µM (≈ 12.4 µg/mL)
- solubility at 24 h ([4]; fassgf or other biorelevant, Fed-State SGF): 27 µM (≈ 7.79 µg/mL)
- solubility at 24 h ([4]; fassif, Fasted-State SIF): 35 µM (≈ 10.1 µg/mL)
- solubility at 24 h ([4]; fessif, Fed-State SIF): 36 µM (≈ 10.4 µg/mL)
- solubility at 24 h ([4]; pH 7.4, aqueous buffer, 0.1M phosphate buffer pH 7.4, 37° C.): 42 µM (≈ 12.1 µg/mL)
